Assay results published in ChEMBL document CHEMBL1142165, “Influence on mitochondria and cytotoxicity of different antibiotics administered in high concentrations on primary human osteoblasts and cell lines” (Antimicrob Agents Chemother, 2007).
In brackets after ≈: the same amount, converted by molar mass. Activity calls are given as the source filed them. The calls are words filed in the database; no cut-off is given here.

Legend:
[1] = Antiproliferative effect against primary human osteoblasts assessed as BrdU incorporation into DNA after 48 hrs; format: functional, cell-based; details: Osteoblast
Osteoblast [2] = test: Inhibition of metabolic activity in primary human osteoblasts assessed as MTT reduction after 48 hrs; format: functional, cell-based
MG-63 [3] = test: Inhibition of metabolic activity in MG63 cells assessed as MTT reduction after 48 hrs; format: functional, cell-based; details: Homo sapiens, MG-63, 48 h
HeLa [4] = test: Inhibition of metabolic activity in HeLa cells assessed as MTT reduction after 48 hrs; format: functional, cell-based; details: Homo sapiens
Osteoblast [5] = test: Increase in lactate production in primary human osteoblasts at 400 ug/ml by ELISA relative to control; format: functional
Osteoblast [6] = test: Increase in lactate production in primary human osteoblasts at 6 ug/ml by ELISA; format: functional
MG-63 [7] = test: Antiproliferative effect against MG63 cells assessed as BrdU incorporation into DNA after 48 hrs after 48 hrs; format: functional, cell-based; details: Homo sapiens, MG-63, 48 h
HeLa [8] = test: Antiproliferative effect against HeLa cells after 48 hrs; format: functional, cell-based; details: Homo sapiens
Osteoblast [9] = test: Increase in lactate production in primary human osteoblasts at 190 ug/ml by ELISA; format: functional
MG-63 [10] = test: Decrease in lactate production in MG63 cells at 400 ug/ml by ELISA; format: functional, Homo sapiens; parameters: scale not given: the % may be the effect or the level left
HeLa [11] = test: Decrease in lactate production in HeLa cells at 400 ug/ml by ELISA; format: functional, Homo sapiens; parameters: scale not given: the % may be the effect or the level left
Osteoblast [12] = test: Antiproliferative effect against primary human osteoblasts assessed as BrdU incorporation into DNA at 10 ug/ml after 48 hrs; format: functional, cell-based
Osteoblast [13] = test: Increase in lactate production in primary human osteoblasts at 25 to 50 ug/ml by ELISA; format: functional
[14] = Cytotoxicity against primary human osteoblasts at 400 ug/ml assessed as LDH release after 24 hrs; details: osteoblast, at 400 µg/mL
Osteoblast [15] = test: Inhibition of metabolic activity in primary human osteoblasts in presence of 10% FCS; format: functional
MG-63 [16] = test: Decrease in lactate production in MG63 cells by ELISA; format: functional, cell-based; details: Homo sapiens
HeLa [17] = test: Decrease in lactate production in HeLa cells by ELISA; format: functional, cell-based; details: Homo sapiens
MG-63 [18] = test: Increase in lactate production in MG63 cells at 400 ug/ml by ELISA relative to control; format: functional, Homo sapiens
Osteoblast [19] = test: Antiproliferative effect against primary human osteoblasts in presence of 10% FCS; format: functional, cell-based
Osteoblast [20] = test: Increase in lactate production in primary human osteoblasts at 10 hrs by ELISA; format: functional
Osteoblast [21] = test: Antiproliferative effect against primary human osteoblasts assessed as BrdU incorporation into DNA after 48 hrs after 48 hrs below 1 uM; format: functional, cell-based
Osteoblast [22] = test: Inhibition of metabolic activity in primary human osteoblasts by MTT assay below 1 uM; format: functional, cell-based
Osteoblast [23] = test: Increase in lactate production in primary human osteoblasts above 0.25 uM by ELISA; format: functional
MG-63 [24] = test: Increase in lactate production in MG63 cells at 50 nM by ELISA relative to control; format: functional, Homo sapiens
MG-63 [25] = test: Inhibition of metabolic activity in MG63 cells by MTT assay relative to control; format: functional, Homo sapiens

Row | Molecule | IC20 [1] [µg/mL] | IC50 [1] [µg/mL] | IC20 (Osteoblast [2]) [µg/mL] | IC50 (Osteoblast [2]) [µg/mL] | IC20 (MG-63 [3]) [µg/mL] | IC50 (MG-63 [3]) [µg/mL] | IC20 (HeLa [4]) [µg/mL] | IC50 (HeLa [4]) [µg/mL] | IC20 (MG-63 [7]) [µg/mL] | IC50 (MG-63 [7]) [µg/mL] | IC20 (HeLa [8]) [µg/mL] | IC50 (HeLa [8]) [µg/mL] | Activity (Osteoblast [19]) | also measured
1 | CC(=O)NC[C@H]1CN(c2ccc(N3CCOCC3)c(F)c2)C(=O)O1 [LINEZOLID] | 240 (≈ 711 µM) | > 400 | > 400 | > 400 | 250 (≈ 741 µM) | > 400 | 300 (≈ 889 µM) | > 400 | – | – | – | – | – | Activity (Osteoblast [5]): 120%; Activity (Osteoblast [6]): 13%
2 | CN(C)[C@@H]1C(O)=C(C(N)=O)C(=O)[C@@]2(O)C(O)=C3C(=O)c4c(O)cccc4[C@@](C)(O)[C@H]3C[C@@H]12 [TETRACYCLINE] | 60 (≈ 135 µM) | 180 (≈ 405 µM) | – | – | – | – | – | – | 60 (≈ 135 µM) | 180 (≈ 405 µM) | 200 (≈ 450 µM) | > 400 | – | Activity (Osteoblast [9]): 30%; Activity (MG-63 [10]): 50%; Activity (HeLa [11]): 50%
3 | O=C(O)c1cn(C2CC2)c2cc(N3CCNCC3)c(F)cc2c1=O [CIPROFLOXACIN] | 70 (≈ 211 µM) | 170 (≈ 513 µM) | 260 (≈ 785 µM) | > 400 | 60 (≈ 181 µM) | 150 (≈ 453 µM) | 70 (≈ 211 µM) | 120 (≈ 362 µM) | 80 (≈ 241 µM) | 160 (≈ 483 µM) | 100 (≈ 302 µM) | 290 (≈ 875 µM) | – | Activity (Osteoblast [12]): Active; Activity (Osteoblast [13]): 10%
4 | CCC[C@@H]1C[C@@H](C(=O)N[C@@H]([C@H]2O[C@H](SC)[C@H](O)[C@@H](O)[C@H]2O)[C@H](C)Cl)N(C)C1 [CLINDAMYCIN] | 40 (≈ 94.1 µM) | 150 (≈ 353 µM) | 340 (≈ 800 µM) | > 400 | 200 (≈ 471 µM) | > 400 | 80 (≈ 188 µM) | 200 (≈ 471 µM) | 160 (≈ 376 µM) | 250 (≈ 588 µM) | 230 (≈ 541 µM) | > 400 | Active | Activity [14]: 10%; IC20 (Osteoblast [15]): 20 µg/mL; Activity (MG-63 [16]): Active; Activity (HeLa [17]): Active; Activity (MG-63 [18]): 60%
5 | Cc1nnc(SCC2=C(C(=O)O)N3C(=O)[C@@H](NC(=O)Cn4cnnn4)[C@H]3SC2)s1 [CEFAZOLIN] | 380 (≈ 836 µM) | > 400 | > 400 | > 400 | 400 (≈ 880 µM) | > 400 | > 400 | > 400 | 230 (≈ 506 µM) | > 400 | 270 (≈ 594 µM) | > 400 | – | –
6 | CC[C@H]1OC(=O)[C@H](C)[C@@H](O[C@H]2C[C@@](C)(OC)[C@@H](O)[C@H](C)O2)[C@H](C)[C@@H](O[C@@H]2O[C@H](C)C[C@H](N(C)C)[C@H]2O)[C@](C)(O)C[C@@H](C)C(=O)[C@H](C)[C@@H](O)[C@]1(C)O [ERYTHROMYCIN] | 30 (≈ 40.9 µM) | 180 (≈ 245 µM) | 210 (≈ 286 µM) | > 400 | 180 (≈ 245 µM) | 310 (≈ 422 µM) | 110 (≈ 150 µM) | 170 (≈ 232 µM) | 130 (≈ 177 µM) | 300 (≈ 409 µM) | 210 (≈ 286 µM) | > 400 | Active | Activity [14]: 40%; IC20 (Osteoblast [15]): 11 µg/mL; Activity (MG-63 [18]): 60%
7 | GENTAMICIN | – | – | – | – | – | – | – | – | – | – | – | – | inactive | –
8 | CCCCCC[C@H]1C(=O)O[C@H](C)[C@H](NC(=O)c2cccc(NC=O)c2O)C(=O)O[C@@H](C)[C@@H]1OC(=O)CC(C)C [ANTIMYCIN A] | – | – | – | – | – | – | – | – | – | – | – | – | – | Activity (Osteoblast [20]): 14 µmol; Activity (Osteoblast [21]): inactive; Activity (Osteoblast [22]): inactive; Activity (Osteoblast [23]): 150%; Activity (MG-63 [24]): 50%; Inhibition (MG-63 [25]): 70%
